Test results from patent US20240091203A1, “METHODS FOR TREATING NON-OBSTRUCTIVE HYPERTROPHIC CARDIOMYOPATHY” (Cytokinetics, Incorporated, priority 2022, published 2024).
“Also recorded” adds a separate entry of the source.

Assays:
[1] = Phase 1 plasma pharmacokinetics, single-ascending dose (SAD) cohorts; type: in vivo, human; settings: for AUC24 / Cmax / AUCinf / CL/F / t1/2 / Tmax: SAD; for CL/F / t1/2: mean ± SD; for Tmax: median (range)
Method: Single-ascending dose (SAD) cohorts. The SAD portion of the study used a randomized, double-blind, placebo-controlled, sequential, escalating-dose design, in which participants received single-ascending oral doses of the study drug. Seven cohorts were dosed in sequence (FIG. 2).
Pharmacokinetic analyses. For all study groups, blood samples for PK assessment were obtained pre-dose, up to 12 times daily on day 1, and then at regular intervals throughout the study. Blood samples were collected according to the following schedule: SAD Cohorts: Day 1: pre-dose and 0.25, 0.5, 1, 1.5, 2, 2.5, 3, 4, 6, 8, 12, 16, 24, 36, 48, 72, 96, and 216 h post dose. MAD Cohorts (14-day Dosing): Day 1: pre-dose and 0.25, 0.5, 1, 1.5, 2, 2.5, 3, 4, 6, 8, and 12 h post dose; Days 2, 4, 5, 6, and 9: pre-dose (corresponding to trough samples following dosing on days 1, 3, 4, 5, and 8) and 1.5 h post dose; Days 3, 7, 8, 10, 11, 12, and 13: pre-dose (corresponding to trough samples following dosing on days 2, 6, 7, 9, 10, 11, and 12); Day 14: pre-dose and 0.25, 0.5, 1.5, 2, 2.5, 3, 4, 6, 8, 12, 16, 24, 36, 48, 72, and 168 h post dose. MAD Cohort (17-Day Dosing): Day 1: pre-dose and 0.25, 0.5, 1, 1.5, 2, 2.5, 3, 4, 6, 8, and 12 h post dose; Days 2, 4, 5, 6, and 9: pre-dose (corresponding to trough samples following dosing on days 1, 3, 4, 5, and 8) and 1.5 h post dose; Days 3, 7, 8, 10, 11, 12, 13, 14, 15, and 16: pre-dose (corresponding to trough samples following dosing on days 2, 6, 7, 9, 10, 11, and 12); Day 17: pre-dose and 0.25, 0.5, 1.5, 2, 2.5, 3, 5, 7, 9, 12, 24, 36, 48, 72, and 168 h post dose. CYPD6-PM Cohort: Day 1: pre-dose and 0.25, 0.5, 1, 1.5, 2, 2.5, 3, 4, 6, 8, 12, 16, 24, 36, 48, 72, 96, 216, 312, and 552 h post dose. Food-Effect Cohort: Day 1: pre-dose and 0.25, 0.5, 1, 1.5, 2, 2.5, 3, 4, 6, 8, 12, 16, 24, 36, 48, 72, 96, 144, and 216 h post dose. Standard non-compartmental methods were used to calculate PK parameters using Phoenix® WinNonlin® Version 7.0; actual sample collection times were utilized.
Statistical Analysis. The sample size chosen for this study was based upon precedent set by other first-in-human PK studies of similar nature and was not based on power calculations. […] All participants who received ≥1 dose of the study drug and had ≥1 evaluable PK plasma profile were included in the PK analysis set. […]

[2] = system: patients with symptomatic non-obstructive HCM (nHCM) or HCM with MVO; assay: Phase 2 trial (Example 2): NYHA Functional Classification; type: in vivo, human
Text: Other exploratory endpoints included: (i) Change in NYHA Functional Classification from baseline to Week 10; and (ii) For patients with baseline NYHA Class III disease, percentage with improvement to NYHA Class I or II disease at Week 10.

[3] = system: patients with symptomatic non-obstructive HCM (nHCM) or HCM with MVO; assay: Phase 2 trial (Example 2): safety and tolerability; settings: for Patients with fatal TEAEs: not related
Text: The study excluded patients receiving disopyramide. […] Overall, the treatment duration was 10 weeks with a 4-week follow-up period after the last dose.
Patients were eligible to be included in the study only if all the following criteria apply: 1. Able to comprehend and willing to sign an informed consent form (ICF) and willing to comply with all study procedures and restrictions for the duration; 2. Males and females between 18 and 85 years of age at screening; 3. Body weight is ≥45 kg at screening; 4. Diagnosed with HCM per the following criteria: (a) has LV hypertrophy and non-dilated LV chamber in the absence of other cardiac disease; and (b) has minimal wall thickness ≥15 mm (minimal wall thickness ≥13 mm is acceptable with a positive family history of HCM or with a known disease-causing gene mutation); 5. Adequate acoustic windows for echocardiography; 7. Left ventricular ejection fraction (LVEF) ≥60% at screening; 8. New York Heart Association (NYHA) Class II or III at screening; 9. Patients on beta-blockers, verapamil, diltiazem, or ranolazine should have been on stable doses for ≥4 weeks and anticipate remaining on the same medication regimen during the study; 10. […] Able to complete all screening procedures.
Patients were excluded from the study if any of the following criteria applied: 1. Aortic stenosis or fixed subaortic obstruction; 2. Known infiltrative or storage disorder causing cardiac hypertrophy that mimics HCM (e.g., Noonan syndrome, Fabry disease, amyloidosis); 3. […] Documented history of current obstructive coronary artery disease (>70% stenosis in one or more epicardial coronary arteries) or documented history of myocardial infarction; 6. […] Has any ECG abnormality considered by the investigator to pose a risk to patient safety (e.g., second degree atrioventricular block type II); 9. Paroxysmal atrial fibrillation or flutter documented during the screening period; 10. […] Currently participating in another investigational device or drug study or received an investigational device or drug <1 month (or 5 half-lives for drugs, whichever is longer) prior to screening; 20.
Each patient received Dose 1 once daily for 2 weeks. […] Otherwise, the patient remained on Dose 1. If LVEF was <50% at Week 2, treatment was discontinued.
Otherwise, the patient remained on the same dose. If LVEF was <50% at Week 4, the patient returned to a prior dose level or treatment was discontinued if the patient was on Dose 1.
If LVEF was <50% at Week 6, the patient was down-titrated to a prior dose level or discontinued if the patient was on Dose 1.
Primary safety endpoints were: (i) patient incidence of reported AEs from first dose up to safety follow-up; (ii) patient incidence of reported SAEs from first dose up to safety follow-up; (iii) patient incidence of LVEF <50% from first dose up to safety follow-up.
Safety follow-up was defined as 4 weeks following the last dose.

[4] = single oral 1 mg, geometric mean (geometric CV %), n = 6
[5] = single oral 3 mg, geometric mean (geometric CV %), n = 6
[6] = single oral 25 mg, geometric mean (geometric CV %), n = 6
[7] = single oral 40 mg, geometric mean (geometric CV %), n = 6
[8] = single oral 50 mg, geometric mean (geometric CV %), n = 11
[9] = number of patients, N = 41, interim

Question: Which results are given for `CCc1nc(-c2ccc3c(c2)CC[C@H]3NC(=O)c2cnn(C)c2)no1` [aficamten, (R)—N-(5-(5-ethyl-1,2,4-oxadiazol-3-yl)-2,3-dihydro-1H-inden-1-yl)-1-methyl-1H-pyrazole-4-carboxamide]?
Answer: maximum time to maximum observed concentration across all participants ([1]; SAD cohorts): 4.0 h; AUC24 [1, 4]: 50 (20) ng · h/ml; Cmax [1, 4]: 5.8 (38.4) ng/ml; AUCinf ([1]; single oral 3 mg, geometric mean (geometric CV %), n = 5): 823 (61) ng · h/ml; AUC24 [1, 5]: 174 (27) ng · h/ml; Cmax [1, 5]: 26.1 (82.4) ng/ml; CL/F ([1]; single oral 3 mg, n = 5): 4.2 ± 3.1 L/h; t1/2 ([1]; single oral 3 mg, n = 5): 75.1 ± 21.8 h; Tmax ([1]; single oral 3 mg, n = 6): 1.3 (0.5, 2.6) h; AUC24 ([1]; single oral 10 mg (extensive metabolizers), geometric mean (geometric CV %), n = 6): 679 ng·h/mL; t1/2 ([1]; single oral 10 mg (extensive metabolizers), n = 4): 84.7 ± 17.7 h; AUCinf ([1]; single oral 10 mg, geometric mean (geometric CV %), n = 4): 3,434 (24) ng · h/ml; Cmax ([1]; single oral 10 mg, geometric mean (geometric CV %), n = 6): 70.5 (69.0) ng/ml; CL/F ([1]; single oral 10 mg, n = 4): 3.0 ± 0.7 L/h; Tmax ([1]; single oral 10 mg, n = 6): 2.8 (0.5, 3.0) h; AUC24 [1, 6]: 1,493 (15) ng · h/ml; AUCinf [1, 6]: 7,113 (15) ng · h/ml; Cmax [1, 6]: 192.6 (23.3) ng/ml; CL/F ([1]; single oral 25 mg, n = 6): 3.6 ± 0.5 L/h; Tmax ([1]; single oral 25 mg, n = 6): 1.8 (0.5, 4.0) h; AUCinf ([1]; single oral 40 mg, geometric mean (geometric CV %), n = 5): 11,860 (20) ng · h/ml; AUC24 [1, 7]: 2,532 (13) ng · h/ml; Cmax [1, 7]: 383.2 (67.9) ng/ml; t1/2 ([1]; single oral 40 mg, n = 4): 79.2 ± 18.5 h; CL/F ([1]; single oral 40 mg, n = 5): 3.4 ± 0.6 L/h; AUCinf ([1]; single oral 50 mg, geometric mean (geometric CV %), n = 9): 13,740 (35) ng · h/ml; AUC24 [1, 8]: 2,833 (26) ng · h/ml; Cmax [1, 8]: 359.4 (38.9) ng/ml; CL/F ([1]; single oral 50 mg, n = 9): 3.8 ± 1.1 L/h; t1/2 ([1]; single oral 50 mg, n = 9): 80.4 ± 14.9 h; Tmax ([1]; single oral 50 mg, n = 11): 1.0 (0.5, 2.5) h; Tmax ([1]; single oral 75 mg, n = 1): 0.5 (0.5, 0.5) h; AUC24 ([1]; single oral 75 mg, n = 1): 4,556 (—) ng · h/ml; Cmax ([1]; single oral 75 mg, n = 1): 1,220 (—) ng/ml; dose proportionality of Cmax and exposure (AUC24) ([1]; single oral doses between 1 mg and 50 mg): dose-proportional; also recorded: linear kinetics; patients with a change of ≥1 NYHA Class ([2]; 22 of 41 patients, interim): 54%; patients with functional improvement of ≥1 NYHA class ([2]; Week 10, second interim, p=0.011 vs assumed 37% placebo effect): 56%; patients achieving NYHA Class 1 (asymptomatic) ([2]; by Week 10, second interim): 28%; patients who improved from NYHA Class II to I ([2]; interim): 8 patients; patients who improved from NYHA Class III to I ([2]; interim): 4 patients; patients who improved from NYHA Class III to II ([2]; interim): 12 patients; patients who experienced SAEs ([3]; 4 of 41 patients including one death, second interim): 9.8%; overall tolerability ([3]; 10 weeks, nHCM patients): well-tolerated overall; patients with LVEF <50% ([3]; Week 10 (EOT), 3 of 41 patients): 7.3%; recovery of LVEF in patients with LVEF <50% ([3]; by Week 12 (2 weeks' washout)): All 3 patients returned to baseline LVEF; also recorded: All LVEF returned to normal; AEs of heart failure ([3]; interim): No AEs of heart failure; drug discontinuations due to AE ([3]; interim): no drug discontinuations; relatedness of SAEs (bronchitis, new onset atrial fibrillation, cardiac arrest) per Investigator ([3]; interim): None of these were deemed related to aficamten; Patients reporting at least one TEAE [3, 9]: 27; Patients with AEs related to study drug (per Investigator) [3, 9]: 4; Patients with Moderate TEAEs [3, 9]: 14; Patients with Severe TEAEs [3, 9]: 3; Patients with fatal TEAEs [3, 9]: 1; Patients with AEs related to study drug (per Investigator) ([3]; percent of N = 41, interim): (9.8) %; Patients with Moderate TEAEs ([3]; percent of N = 41, interim): (34) %; Patients with Severe TEAEs ([3]; percent of N = 41, interim): (7.3) %; Patients with TESAEs ([3]; percent of N = 41, interim): (7.3) %; Patients with fatal TEAEs ([3]; percent of N = 41, interim): (2.4) not related %; attribution of SAEs ([3]; second interim): None of the SAEs were attributed to aficamten; events with LVEF <40% ([3]; second interim): no events with LVEF <40%; also recorded: No LVEF <40% occurred; treatment interruptions or down-titration events related to LVEF <50% ([3]; second interim): no treatment interruptions or down-titration events; patients with dose reduction to 10 mg for AE fatigue ([3]; week 9, interim): One patient; LVEF <50% during the titration period ([3]; weeks 0-6, interim): no LVEF were less than 50%
